Among the data in ChEMBL document CHEMBL4627377, “Betulin isolated from Pyrola incarnata Fisch. inhibited lipopolysaccharide (LPS)-induced neuroinflammation with the guidance of computer-aided drug design” (Bioorg Med Chem Lett, 2020) are inhibition and Activity values, retold here.

For data set [1], the system named is BV-2. The data set can be described thus: Inhibition of LPS-induced JNK-46 activation in […] BV2 cells preincubated for 4 hrs followed by LPS stimulation and measured after 24 hrs by Western blot analysis. It is filed as functional, cell-based. The settings on record: Mus musculus.
In data set [2] the test system is BV-2. The experiment in a line: Inhibition of LPS-induced JNK-54 phosphorylation in […] BV2 cells at 62.5 to 250 ug/ml preincubated for 4 hrs followed by LPS stimulation and measured after 24 hrs by Western blot analysis. Conditions: Mus musculus. In kind it is functional, cell-based. For orientation: In western blotting, separated proteins are transferred to a membrane and probed.

Data set [3] deals with BV-2. The experiment in a line: Inhibition of LPS-induced IL6 production in […] BV2 cells preincubated for 4 hrs followed by LPS stimulation and measured after 24 hrs by ELISA. It is filed as functional, cell-based. Conditions: Mus musculus. A general note: An ELISA detects its analyte on a solid surface through an enzyme-linked reagent.
The test system of data set [4] is BV-2. The experiment in a line: Cytotoxicity against […] BV2 cells assessed as survival rate at 125 ug/ml. It is filed as cell-based. The settings on record: mouse.
The subject of data set [5] is BV-2. The data set can be described thus: Inhibition of LPS-induced JNK-54 activation in […] BV2 cells preincubated for 4 hrs followed by LPS stimulation and measured after 24 hrs by Western blot analysis. In kind it is functional, cell-based. Conditions: Mus musculus.
For data set [6], the system named is BV-2. The experiment in a line: Inhibition of LPS-induced IL-1beta production in […] BV2 cells preincubated for 4 hrs followed by LPS stimulation and measured after 24 hrs by ELISA. The settings on record: Mus musculus. In kind it is functional, cell-based.
Data set [7] relates to BV-2. The experiment in a line: Inhibition of LPS-induced iNOS expression in […] BV2 cells at 250 ug/ml preincubated for 4 hrs followed by LPS stimulation and measured after 24 hrs by Western blot analysis. Conditions: Mus musculus. In kind it is functional, cell-based.
Data set [8] deals with BV-2. The experiment in a line: Inhibition of LPS-induced NO release in […] BV2 cells at 62.5 to 250 ug/ml preincubated for 4 hrs followed by LPS stimulation and measured after 24 hrs by Griess reagent based assay. In kind it is functional, cell-based. Conditions: Mus musculus. In general terms: Nitrite, measured by Griess reagent, commonly stands in for NO production.
The subject of data set [9] is BV-2. The data set can be described thus: Inhibition of LPS-induced TNF-alpha production in […] BV2 cells preincubated for 4 hrs followed by LPS stimulation and measured after 24 hrs by ELISA. It is filed as functional, cell-based. The settings on record: Mus musculus.
Data set [10] relates to BV-2. The experiment in a line: Inhibition of LPS-induced JNK-46 phosphorylation in […] BV2 cells at 62.5 to 250 ug/ml preincubated for 4 hrs followed by LPS stimulation and measured after 24 hrs by Western blot analysis. It is filed as functional, cell-based. The settings on record: Mus musculus.
Data set [11] has as its system BV-2. The experiment in a line: Inhibition of LPS-induced NF-kappaB/p65 nuclear translocation in […] BV2 cells assessed as reduction in p65/NFkappaB level at 250 ug/ml by DAPI staining based fluorescence microscopic analysis. Conditions: Mus musculus. It is filed as functional, cell-based.
The subject of data set [12] is BV-2. The experiment in a line: Inhibition of LPS-induced TNF-alpha production in […] BV2 cells at 250 ug/ml preincubated for 4 hrs followed by LPS stimulation and measured after 24 hrs by ELISA. The settings on record: Mus musculus. In kind it is functional, cell-based.
The test system of data set [13] is BV-2. The experiment in a line: Cytotoxicity against […] BV2 cells assessed as survival rate at 250 ug/ml. The settings on record: mouse. In kind it is cell-based.
Data set [14] deals with BV-2. The data set can be described thus: Inhibition of LPS-induced IL-1beta production in […] BV2 cells at 250 ug/ml preincubated for 4 hrs followed by LPS stimulation and measured after 24 hrs by ELISA. In kind it is functional, cell-based. The settings on record: Mus musculus.
The subject of data set [15] is BV-2. The experiment in a line: Inhibition of LPS-induced IL6 production in […] BV2 cells at 20 ug/ml preincubated for 4 hrs followed by LPS stimulation and measured after 24 hrs by ELISA. It is filed as functional, cell-based. Conditions: Mus musculus.
The subject of data set [16] is BV-2. The experiment in a line: Inhibition of LPS-induced NO release in […] BV2 cells at 20 ug/ml preincubated for 4 hrs followed by LPS stimulation and measured after 24 hrs by Griess reagent based assay. The settings on record: Mus musculus. In kind it is functional, cell-based.
Data set [17] relates to BV-2. The experiment in a line: Cytotoxicity against […] BV2 cells assessed as survival rate at 500 ug/ml. It is filed as cell-based. The settings on record: mouse.

Activity calls are given as the source filed them. The rule behind the calls is not given here.

Take `C=C(C)[C@@H]1CC[C@]2(CO)CC[C@]3(C)[C@H](CC[C@@H]4[C@@]5(C)CC[C@H](O)C(C)(C)[C@@H]5CC[C@]43C)[C@@H]12` [BETULIN]: the inhibition result in the data set on BV-2 [1], with BV-2 [3], in the data set with BV-2 [5], with BV-2 [6] and in the data set on BV-2 [9] was “Dose-dependent effect” each time. Also, the inhibition entry in the data set with BV-2 [2], in the data set with BV-2 [7], in the data set with BV-2 [8], in the data set on BV-2 [10] and with BV-2 [11] was “Active” each time. The Activity result in the data set on BV-2 [4] is listed as “Non-Toxic”.
Turning to `C[C@@H]1CC[C@]2(C(=O)O[C@H]3O[C@@H](CO)[C@H](O)[C@@H](O)[C@@H]3O)CC[C@]3(C)C(=CC[C@@H]4[C@@]5(C)CC[C@H](O)[C@@](C)(CO)[C@@H]5CC[C@]43C)[C@@H]2[C@]1(C)O`, the inhibition result with BV-2 [12] and with BV-2 [14] was “Active” in each case. Besides, in the data set on BV-2 [13], the Activity entry is “Non-Toxic”.
On to `COc1cc2c(cc1OC)C(=O)C(CC1CCN(Cc3ccccc3)CC1)C2` (configuration not stated), for which the inhibition entry in the data set on BV-2 [15] and in the data set with BV-2 [16] was “Active” in each case.
In the case of `C[C@H]1[C@H](C)CC[C@]2(C(=O)O)CC[C@]3(C)C(=CC[C@@H]4[C@@]5(C)CC[C@H](O)C(C)(C)[C@@H]5CC[C@]43C)[C@H]12` [URSOLIC ACID], the inhibition result in the data set with BV-2 [12] and with BV-2 [14] was “Active” throughout. Further, the Activity entry in the data set on BV-2 [17] is listed as “Non-Toxic”.
For `C[C@@H]1CC[C@]2(C(=O)O)CC[C@]3(C)C(=CC[C@@H]4[C@@]5(C)CC[C@H](O)[C@@](C)(CO)[C@@H]5CC[C@]43C)[C@@H]2[C@]1(C)O` [ROTUNDIC ACID], the inhibition result in the data set on BV-2 [12] and in the data set on BV-2 [14] was “Active” in each case. Besides, the Activity entry with BV-2 [13] is on record as “Non-Toxic”.
